Source: patent publication US20220313690A1, “SYNERGISTIC EFFECT OF EYP001 AND IFN FOR THE TREATMENT OF HBV INFECTION” (ENYO PHARMA, priority 2019, published 2022)

What was measured:
HBV replication = assay: Synergistic effect of combined treatment on HBV replication markers (pgRNA and HBcrAg) in patients; assay type: in vivo, human; details: same dose, same period of 4 weeks, monotherapy
From the text: By “a synergistic effect” is intended to refer to an effect for decreasing the HBV replication which is more than the sum of the effects of each molecule alone. HBV replication can be assessed by determining surface HBV antigen (HBsAg), HBeAg, HBV core related antigen (HBcrAg), HBV DNA, HBV pre-genomic RNA, HBV pre-core RNA and/or HBV cccDNA. More particularly, the effect is observed on the pre-genomic RNA (HBV pgRNA) and/or on the hepatitis B core related antigen (HBcrAg).
(§1) HBV chronically infected patients (male (n=39) and female (n=34)) underwent a 4-week treatment course as either daily oral FXR agonist EYP001a monotherapy or placebo or entecavir (ETV) in Part A of the study (n=48) or in combination with interferon (n=23, weekly sub-cutaneous injections of pegylated IFNα2a, PEG-IFN) in Part B. Patient characteristics were: mean age of 39.7 years (range: 19-63); 6 of 73 were HBeAg-positive; 70% treatment naïve; mean baselines HBV DNA 4.2 (±1.5 SD) log 10 IU/mL, HBsAg 3.5 (±0.8 SD) log 10 IU/mL, and genotypes A (25), B (8), C (10), D (7) and E (4). FXR engagement with all EYP001 doses led to decreases in C4 and increases in FGF19 (data not shown).
At end of treatment on day 29, 400 mg QD EYP001 decrease the mean HBsAg by −0.1 log 10 IU/mL (p<0.05). […]

HBV = details: chronic hepatitis B patients; Erken et al 2018; cited from earlier work
HBV pgRNA = HBV pgRNA change from baseline after 4-week treatment course in chronically infected HBV patients; assay type: in vivo, human; details: 4 weeks
Description: FIG. 1: HBV pgRNA (log 10 copies/mL) changes from baseline after a 4 week anti-HBV treatment course of FXR agonist EYP001a or placebo in combination with interferon in chronically infected previously untreated HBV patients. PBO: placebo. peg-IFN: pegylated interferon alpha2a. 150 BID: 150 mg twice daily. 300 QD: 300 mg once daily. pgRNA: pregenomic ribonucleic acid.
as §1, with “(4).” for “(4). FXR engagement with all EYP001 doses led to decreases in C4 and increases in FGF19 (data not shown).”

FXR = molecular target: T1, FXR (Homo sapiens, UniProt Q96RI1); assay: FXR engagement markers (C4, FGF19) in HBV patients; assay type: in vivo; details: all EYP001 doses; data not shown
T1 construct: FXR engagement with all EYP001 doses led to decreases in C4 and increases in FGF19; from tissue; host or cells: endogenous FXR in the tissues of treated HBV patients (in vivo clinical study)
T1 sequence (Q96RI1 1-486): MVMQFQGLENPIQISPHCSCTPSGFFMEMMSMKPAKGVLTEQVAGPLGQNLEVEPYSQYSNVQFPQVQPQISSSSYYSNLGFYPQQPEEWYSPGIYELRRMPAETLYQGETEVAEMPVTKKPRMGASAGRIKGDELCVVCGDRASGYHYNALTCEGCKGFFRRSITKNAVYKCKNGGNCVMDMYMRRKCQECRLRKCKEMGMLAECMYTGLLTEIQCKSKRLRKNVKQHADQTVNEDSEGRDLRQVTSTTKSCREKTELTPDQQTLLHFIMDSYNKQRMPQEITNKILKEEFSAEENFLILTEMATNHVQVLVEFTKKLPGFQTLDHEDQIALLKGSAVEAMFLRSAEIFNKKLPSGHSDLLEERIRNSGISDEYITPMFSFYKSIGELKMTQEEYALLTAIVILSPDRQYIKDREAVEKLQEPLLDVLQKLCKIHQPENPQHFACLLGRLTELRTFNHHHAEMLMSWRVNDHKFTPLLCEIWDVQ
From the text: as §1, with “(4).” for “(4). FXR engagement with all EYP001 doses led to decreases in C4 and increases in FGF19 (data not shown).”

HBsAg = assay type: in vivo, human; details: 400 mg QD EYP001, end of treatment day 29, p<0.05
From the text: as §1, with “(4).” for “(4). FXR engagement with all EYP001 doses led to decreases in C4 and increases in FGF19 (data not shown).”

[1] = human, in vivo, 4 weeks
Description: Therefore, in a particular aspect, EYP001 is administered once a day.

HBcrAg = HBcrAg change from baseline after 4-week treatment course in chronically infected HBV patients; assay type: in vivo, human; details: 4 weeks
From the text: PBO: placebo. peg-IFN: pegylated interferon alpha2a. HBcrAg: hepatitis B core-related antigen.
as §1, with “(4).” for “(4). FXR engagement with all EYP001 doses led to decreases in C4 and increases in FGF19 (data not shown).”

[2] = EYP001a 1 × 100 mg/day monotherapy, day 29
[3] = EYP001a 1 × 200 mg/day monotherapy, day 29
[4] = EYP001a 1 × 400 mg/day monotherapy, day 29
[5] = EYP001a 2 × 200 mg/day monotherapy, day 29
[6] = ETV open-label 0.5 mg/day, end of treatment day 29

SMILES	effect when used alone (HBV replication)	HBV viral load (HBV)	HBVpgRNA mean change (HBV pgRNA; [2]) [Log10 Copies mL]	HBVpgRNA mean change (HBV pgRNA; [3]) [Log10 Copies mL]	HBVpgRNA mean change (HBV pgRNA; [4]) [Log10 Copies mL]	HBVpgRNA mean change (HBV pgRNA; [5]) [Log10 Copies mL]	change in C4 (FXR)	change in FGF19 (FXR)	mean HBsAg decrease (HBsAg) [log 10 IU/mL]	pruritus, once a day versus twice a day [1]	HBcrAg mean change (HBcrAg; [2]) [Log10 IU mL]	HBcrAg mean change (HBcrAg; [3]) [Log10 IU mL]	HBcrAg mean change (HBcrAg; [4]) [Log10 IU mL]	HBcrAg mean change (HBcrAg; [5]) [Log10 IU mL]	HBVpgRNA mean change (HBV pgRNA; [6]) [Log10 Copies mL]	HBcrAg mean change (HBcrAg; [6]) [Log10 IU mL]
O=C(O)c1cc2c(Cl)c(N3CCN(S(=O)(=O)c4c(Cl)cccc4Cl)CC3)ccc2o1 [EYP001]	do not show a significant effect	reduces HBV viral load	0.5	0.4	0.2	−0.1	decreases	increases	−0.1	fewer pruritus occurs when EYP001 is administered once a day	−0.3	0.2	0.02	1.2		
C=C1[C@H](CO)[C@@H](O)C[C@@H]1n1cnc2c(=O)[nH]c(N)nc21 [ETV, entecavir, reference compound]															−0.3	0.03
